Assay [1] has as its system PDAC cell lines. Briefly: Apoptosis induction in PDAC cell lines (PI/Annexin V, FACS). The class given is cell-based. The settings on record: representative subset of PDAC cell lines, dual staining with PI and Annexin V, FIG. 1.
In assay [2] the test system is MiaPaCa2 cells. Nature of the assay: Induction of autophagy by acridine orange staining and FACS analysis. As to conditions: FIG. 2B. It counts as cell-based. The text has this:
Occurrence of cytoplasmic vacuoles in tumor cells treated with dual-targeted inhibitors are consistently observed. […] A variety of assays, including LC3-I to LC3-II conversion, acridin orange supravital staining, and MDC staining indicate whether treatment of pancreatic cancer cells with a compound of the invention will induce autophagy.

The subject of assay [3] is Xenograft tumors derived from BxPC3 cells. Briefly: BxPC3 xenograft tumor growth in nude mice (Biological Example 8A). The class given is in vivo. As to conditions: BxPC3 subcutaneous flank tumors in nude mice, once daily dosing, 30 days; FIG. 4A. How it is done: Whether autophagy inhibition increased the activity of Compound A in vivo was explored. Xenograft tumors derived from BxPC3 cells were grown subcutaneously as flank tumors in nude mice to a size of 150 mm^3. Treatment with Compound A, alone or in combination with choloroquine, was administered for 30 days. Treatment with Compound A along and Compound A in combination with chloroquine was carried out by once daily dosing as indicated. Tumor volume was measured regularly. Tumors were harvested from euthanized mice for protein expression analyses.

In assay [4] the test system is MiaPaCa2 cells. Nature of the assay: Induction of apoptosis in MiaPaCa2 cells by FACS analysis. The settings on record: 72 hours, FIG. 2A. It counts as cell-based. (In general: A flow cytometer gives signals particle by particle.)
The test system of assay [5] is BxPC-3 cells. Nature of the assay: BxPC-3 xenograft tumor growth in Nu/Nu mice (Biological Example 8B). As to conditions: BxPC-3 s.c. in Nu/Nu mice; Compound A 30 mg/kg oral gavage, CQ 50 mg/kg i.p., 5 times/week, 28 days; FIG. 4B. The class given is in vivo. How it is done:
Female 7-9 weeks old Nu/Nu mice (Harlan, FoxN 1/nude) were inoculated s.c. with 10^7 BxPC-3 cells. Mice were monitored according to the protocol approved by the University of California, San Francisco Institutional Animal Care and Use Committee. When tumors reached about 100 mm^3, mice were randomly assigned to one of […] treatment groups: vehicle control, Compound A 30 mg/kg, Chloroquine (CQ) 50 mg/kg, Compound A+CQ. Compound A was solubilized in water/10 mM HCl, Compound B was dissolved in water, both drugs were administered by oral gavage once a day 5 times/week. CQ was dissolved in saline and injected i.p daily, 5 times/week. Each treatment regimen was tested in cohorts of eight mice and the dosing was continued for 28 days. Tumor sizes were measured twice weekly in two dimensions using a caliper, tumor size (mm^3) was calculated as (length×width^2)/2. Animals were monitored for toxicity by measuring body weight twice weekly and monitoring overall activity.
Dbata are expressed as means+/−standard deviation. Statistical analysis was performed by using Student's t-test (two-tailed). P values of <0.05 were considered significant.

Assay [6] concerns pancreatic cancer cells. Nature of the assay: Effect of autophagy inhibitors on autophagy and apoptosis of treated cells. It counts as cell-based. The text has this:
We therefore tested whether inhibitors of autophagy or apoptosis could shift the cellular response from autophagy to apoptosis or vice versa.

For `CCn1c(=O)c(-c2ccn[nH]2)cc2c(C)nc(N)nc21` [Compound A], the apoptosis induction result in assay [1] is listed as “apoptosis induction”. Further, in assay [2], the induction of autophagy result is given as “induction of autophagy”. Also, the “tumor growth (tumor volume)” value in assay [3] is given as “no clear growth-inhibitory effect”. For the same compound, the induction of apoptosis entry in assay [4] is “induction of apoptosis”. The “tumor growth (tumor size)” value in assay [5] was “no clear growth-inhibitory effect”.
With `Cn1cnc(N)c2ncnc1-2` [Example 3-MA, 3-methyladenine], in assay [6] (autophagy inhibitor added to cells treated with dual-targeted inhibitor, data not shown), the autophagy result is given as “inhibited autophagy”. The “fraction of cells undergoing apoptosis” value in assay [6] (autophagy inhibitor added, FIG. 3: Compound A with or without CQ 5 mM, 72 hours, PI/Annexin-V FACS) is reported as “significantly increased”.

These data come from patent publication US8901137B2, “Methods of treating cancer using pyridopyrimidinone inhibitors of PI3K and mTOR in combination with autophagy inhibitors” (Exelixis, Inc., priority 2010, dated 2014).
